Source: ChEMBL document CHEMBL1687783, “Prevalence and dissemination of oqxAB in Escherichia coli isolates from animals, farmworkers, and the environment” (2010)
Converted amounts (≈) assume the structure as drawn.

Columns and labels:
Escherichia coli [1] = assay: Antimicrobial activity against oqxAB positive Escherichia coli C600 G062-T transconjugant by CLSI agar dilution method
Escherichia coli [2] = assay: Antimicrobial activity against oqxAB positive Escherichia coli DH5[alpha] harboring pMD18-T::oqxAB by CLSI agar dilution method; format: functional
Escherichia coli [3] = assay: Antimicrobial activity against oqxAB positive Escherichia coli C600 X1B1-T transconjugant by CLSI agar dilution method
Escherichia coli [4] = assay: Antimicrobial activity against Escherichia coli C600 ST2-T transconjugant harboring oqxAB, qnrB6 and aac(6')-Ib-cr genes by CLSI agar dilution method; format: functional
Escherichia coli [5] = assay: Antimicrobial activity against oqxAB positive Escherichia coli C600 W322-T transconjugant by CLSI agar dilution method; format: functional
Escherichia coli [6] = assay: Antimicrobial activity against oqxAB positive Escherichia coli C600 XT11-T transconjugant by CLSI agar dilution method
Escherichia coli [7] = assay: Antimicrobial activity against oqxAB positive Escherichia coli C600 W281-T transconjugant by CLSI agar dilution method
Escherichia coli [8] = assay: Antimicrobial activity against oqxAB positive Escherichia coli C600 SW8-T transconjugant by CLSI agar dilution method; format: functional
Escherichia coli [9] = assay: Antimicrobial activity against oqxAB positive Escherichia coli C600 SP8-T transconjugant by CLSI agar dilution method; format: functional
Escherichia coli [10] = assay: Antimicrobial activity against oqxAB positive Escherichia coli C600 D83-T transconjugant by CLSI agar dilution method; format: functional
Escherichia coli [11] = assay: Antimicrobial activity against Escherichia coli C600 by CLSI agar dilution method
Escherichia coli [12] = assay: Antimicrobial activity against oqxAB positive Escherichia coli C600 W245-T transconjugant by CLSI agar dilution method; format: functional
Escherichia coli [13] = assay: Antimicrobial activity against oqxAB positive Escherichia coli C600 G262-T transconjugant by CLSI agar dilution method
Escherichia coli [14] = assay: Antimicrobial activity against oqxAB positive Escherichia coli C600 G375-T transconjugant by CLSI agar dilution method; format: functional
Escherichia coli [15] = assay: Antimicrobial activity against oqxAB positive Escherichia coli C600 W191-T transconjugant by CLSI agar dilution method; format: functional
Escherichia coli [16] = assay: Antimicrobial activity against Escherichia coli DH5[alpha] by CLSI agar dilution method

Compound | MIC (Escherichia coli [1]) [µg/mL] | MIC (Escherichia coli [2]) [µg/mL] | MIC (Escherichia coli [3]) [µg/mL] | MIC (Escherichia coli [4]) [µg/mL] | MIC (Escherichia coli [5]) [µg/mL] | MIC (Escherichia coli [6]) [µg/mL] | MIC (Escherichia coli [7]) [µg/mL] | MIC (Escherichia coli [8]) [µg/mL] | MIC (Escherichia coli [9]) [µg/mL] | MIC (Escherichia coli [10]) [µg/mL] | MIC (Escherichia coli [11]) [µg/mL] | MIC (Escherichia coli [12]) [µg/mL] | MIC (Escherichia coli [13]) [µg/mL] | MIC (Escherichia coli [14]) [µg/mL] | MIC (Escherichia coli [15]) [µg/mL] | MIC (Escherichia coli [16]) [µg/mL]
CN(C)[C@@H]1C(O)=C(C(N)=O)C(=O)[C@@]2(O)C(O)=C3C(=O)c4c(O)cccc4[C@@](C)(O)[C@H]3C[C@@H]12 [TETRACYCLINE] | 4 (≈ 9 µM) | 4 (≈ 9 µM) | 32 (≈ 72 µM) | 2 (≈ 4.5 µM) | 1 (≈ 2.25 µM) | 64 (≈ 144 µM) | 2 (≈ 4.5 µM) | 1 (≈ 2.25 µM) | 2 (≈ 4.5 µM) | 4 (≈ 9 µM) | 1 (≈ 2.25 µM) | 1 (≈ 2.25 µM) | 32 (≈ 72 µM) | 4 (≈ 9 µM) | 64 (≈ 144 µM) | 2 (≈ 4.5 µM)
GENTAMICIN |  | 0.125 |  | 0.25 | 0.125 |  |  | 32 | 0.25 | 0.25 |  | 0.25 |  | 0.25 | 1 | 
CCN1CCN(c2cc3c(cc2F)c(=O)c(C(=O)O)cn3C2CC2)CC1 [ENROFLOXACIN] | 0.125 (≈ 0.348 µM) | 0.125 (≈ 0.348 µM) | 0.125 (≈ 0.348 µM) | 2 (≈ 5.56 µM) | 0.125 (≈ 0.348 µM) | 0.06 (≈ 0.167 µM) | 0.06 (≈ 0.167 µM) | 0.125 (≈ 0.348 µM) | 0.06 (≈ 0.167 µM) | 0.06 (≈ 0.167 µM) | 0.016 (≈ 0.0445 µM) | 0.06 (≈ 0.167 µM) | 0.125 (≈ 0.348 µM) | 0.125 (≈ 0.348 µM) | 0.125 (≈ 0.348 µM) | 0.016 (≈ 0.0445 µM)
CC(=O)c1c(C)[n+]([O-])c2ccccc2[n+]1[O-] [MEQUINDOX] | 128 (≈ 587 µM) | 64 (≈ 293 µM) | 64 (≈ 293 µM) | 128 (≈ 587 µM) | 256 (≈ 1170 µM) | 128 (≈ 587 µM) | 64 (≈ 293 µM) | 256 (≈ 1170 µM) | 256 (≈ 1170 µM) | 128 (≈ 587 µM) | 4 (≈ 18.3 µM) | 128 (≈ 587 µM) | 128 (≈ 587 µM) | 256 (≈ 1170 µM) | 128 (≈ 587 µM) | 4 (≈ 18.3 µM)
CS(=O)(=O)c1ccc([C@@H](O)[C@@H](CF)NC(=O)C(Cl)Cl)cc1 [FLORFENICOL] | 16 (≈ 44.7 µM) | 16 (≈ 44.7 µM) | 16 (≈ 44.7 µM) | 4 (≈ 11.2 µM) | 16 (≈ 44.7 µM) | 16 (≈ 44.7 µM) | 16 (≈ 44.7 µM) | 16 (≈ 44.7 µM) | 16 (≈ 44.7 µM) | 8 (≈ 22.3 µM) | 2 (≈ 5.58 µM) | 16 (≈ 44.7 µM) | 16 (≈ 44.7 µM) | 16 (≈ 44.7 µM) | 16 (≈ 44.7 µM) | 4 (≈ 11.2 µM)
O=C(N[C@H](CO)[C@H](O)c1ccc([N+](=O)[O-])cc1)C(Cl)Cl [CHLORAMPHENICOL] | 32 (≈ 99 µM) | 64 (≈ 198 µM) | 128 (≈ 396 µM) | 32 (≈ 99 µM) | 64 (≈ 198 µM) | 128 (≈ 396 µM) | 128 (≈ 396 µM) | 128 (≈ 396 µM) | 64 (≈ 198 µM) | 32 (≈ 99 µM) | 4 (≈ 12.4 µM) | 64 (≈ 198 µM) | 128 (≈ 396 µM) | 32 (≈ 99 µM) | 128 (≈ 396 µM) | 4 (≈ 12.4 µM)
CCn1cc(C(=O)O)c(=O)c2cc(F)c(N3CCNCC3)cc21 [NORFLOXACIN] | 0.125 (≈ 0.391 µM) | 0.25 (≈ 0.783 µM) | 0.125 (≈ 0.391 µM) | 4 (≈ 12.5 µM) | 0.25 (≈ 0.783 µM) | 0.25 (≈ 0.783 µM) | 0.125 (≈ 0.391 µM) | 0.5 (≈ 1.57 µM) | 0.125 (≈ 0.391 µM) | 0.125 (≈ 0.391 µM) | 0.03 (≈ 0.0939 µM) | 0.125 (≈ 0.391 µM) | 0.25 (≈ 0.783 µM) | 0.25 (≈ 0.783 µM) | 0.125 (≈ 0.391 µM) | 0.03 (≈ 0.0939 µM)
Cc1c(C(=O)NCCO)[n+]([O-])c2ccccc2[n+]1[O-] [OLAQUINDOX] | 256 (≈ 972 µM) | 128 (≈ 486 µM) | 256 (≈ 972 µM) | 512 (≈ 1940 µM) | 512 (≈ 1940 µM) | 256 (≈ 972 µM) | 128 (≈ 486 µM) | 512 (≈ 1940 µM) | 256 (≈ 972 µM) | 256 (≈ 972 µM) | 8 (≈ 30.4 µM) | 512 (≈ 1940 µM) | 256 (≈ 972 µM) | 256 (≈ 972 µM) | 256 (≈ 972 µM) | 8 (≈ 30.4 µM)
CCn1cc(C(=O)O)c(=O)c2ccc(C)nc21 [NALIDIXIC ACID] | 32 (≈ 138 µM) | 32 (≈ 138 µM) | 16 (≈ 68.9 µM) | 256 (≈ 1100 µM) | 64 (≈ 276 µM) | 16 (≈ 68.9 µM) | 16 (≈ 68.9 µM) | 64 (≈ 276 µM) | 32 (≈ 138 µM) | 8 (≈ 34.4 µM) | 2 (≈ 8.61 µM) | 16 (≈ 68.9 µM) | 16 (≈ 68.9 µM) | 64 (≈ 276 µM) | 16 (≈ 68.9 µM) | 2 (≈ 8.61 µM)
CC1(C)S[C@@H]2[C@H](NC(=O)[C@H](N)c3ccccc3)C(=O)N2[C@H]1C(=O)O [AMPICILLIN] | > 128 |  | 16 (≈ 45.8 µM) | 4 (≈ 11.4 µM) | > 128 | > 128 | > 128 | > 128 | > 128 | 16 (≈ 45.8 µM) | 4 (≈ 11.4 µM) | > 128 | 8 (≈ 22.9 µM) | 16 (≈ 45.8 µM) | > 128 | > 128
CN[C@@H]1[C@H](O[C@H]2[C@H](O[C@H]3[C@H](O)[C@@H](O)[C@H](N=C(N)N)[C@@H](O)[C@@H]3N=C(N)N)O[C@@H](C)[C@]2(O)C=O)O[C@@H](CO)[C@H](O)[C@H]1O [STREPTOMYCIN] | > 518 | 2 (≈ 3.44 µM) | > 520 | > 523 | > 515 | > 521 | > 513 | > 522 | > 524 | > 525 | > 512 | > 516 | > 517 | > 519 | > 514 | 4 (≈ 6.88 µM)
